Structures are written as SMILES. Active and inactive are the calls of the source. No cut-off for these calls is given here.

In ChEMBL document CHEMBL1152845, “Synthesis, cytotoxicity and apoptosis of naphthalimide polyamine conjugates as antitumor agents” (Eur J Med Chem, 2009) one finds IC50 and Activity data, which are given here for seven compounds.

One experiment deals with K562. The experiment in a line: Cytotoxicity against human K562 cells after 48 hrs by MTT assay. In kind it is functional, cell-based. Particulars: K562, 48 h.
In the next experiment the test system is CHO. The experiment in a line: Cytotoxicity against CHO cells after 48 hrs by MTT assay. It counts as cell-based. To be noted: Cricetulus griseus.
Experiment [1] concerns B16. The experiment in a line: Cytotoxicity against mouse B16 cells after 48 hrs by MTT assay. It counts as functional, cell-based. To be noted: B16, 48 h.
The nature of experiment [2]: Cytotoxicity against mouse Mel-A cells after 48 hrs by MTT assay. It counts as cell-based.
The test system of a further experiment is Bel-7402. The experiment in a line: Cytotoxicity against human Bel7402 cells after 48 hrs by MTT assay. In kind it is functional, cell-based. Particulars: Bel-7402, 48 h.
Experiment [3] can be described thus: Cytotoxicity against human QSG7701 cells after 48 hrs by MTT assay. To be noted: QSG7701, 48 h. In kind it is cell-based.
The test system of a further experiment is Calf thymus DNA. The experiment in a line: Binding affinity to calf thymus DNA at 80 uM by spectrophotometry. In kind it is nucleic-acid assay. To be noted: Bos taurus.
Experiment [4] concerns B16. The experiment in a line: Cell cycle arrest in mouse B16 cells by accumulation at G0/G1 phase at 0.5 uM after 48 hrs by flow cytometry. It counts as functional.
Experiment [5] has as its system B16. Kind of experiment: Cell cycle arrest in mouse B16 cells by accumulation at G2/M phase at 0.5 uM after 48 hrs by flow cytometry. It counts as functional.
Experiment [6] relates to B16. The experiment in a line: Cell cycle arrest in mouse B16 cells by accumulation at S phase at 0.5 uM after 48 hrs by flow cytometry. In kind it is functional.
Experiment [7] relates to B16. Kind of experiment: Cell cycle arrest in mouse B16 cells by accumulation at G0/G1 phase at 1.0 uM after 48 hrs by flow cytometry. It counts as functional.
Experiment [8] relates to B16. The experiment in a line: Cell cycle arrest in mouse B16 cells by accumulation at G2/M phase at 1.0 uM after 48 hrs by flow cytometry. It counts as functional.
For experiment [9], the system named is B16. The experiment in a line: Cell cycle arrest in mouse B16 cells by accumulation at S phase at 1.0 uM after 48 hrs by flow cytometry. It counts as functional.
In experiment [10] the test system is B16. The experiment in a line: Cell cycle arrest in mouse B16 cells by accumulation at G0/G1 phase at 2.0 uM after 48 hrs by flow cytometry. In kind it is functional.
Experiment [11] deals with B16. The experiment in a line: Cell cycle arrest in mouse B16 cells by accumulation at G2/M phase at 2.0 uM after 48 hrs by flow cytometry. In kind it is functional.
The test system of experiment [12] is B16. Kind of experiment: Cell cycle arrest in mouse B16 cells by accumulation at S phase at 2.0 uM after 48 hrs by flow cytometry. It counts as functional.
For experiment [13], the system named is B16. Kind of experiment: Induction of apoptosis in mouse B16 cells assessed as sub-G1 DNA content at 0.5 uM after 48 hrs by flow cytometry. In kind it is functional.
Experiment [14] relates to B16. Kind of experiment: Induction of apoptosis in mouse B16 cells assessed as sub-G1 DNA content at 1.0 uM after 48 hrs by flow cytometry. In kind it is functional.
The test system of experiment [15] is B16. Kind of experiment: Induction of apoptosis in mouse B16 cells assessed as sub-G1 DNA content at 2.0 uM after 48 hrs by flow cytometry. In kind it is functional.
Experiment [16] concerns B16. The experiment in a line: Induction of apoptosis in mouse B16 cells assessed as increase in caspase-8 cleavage after 48 hrs by Western blot relative to control. In kind it is functional, cell-based.
Experiment [17] has as its system B16. The experiment in a line: Induction of apoptosis in mouse B16 cells assessed as increase in caspase-9 cleavage after 48 hrs by Western blot relative to control. It counts as functional, cell-based.
The test system of experiment [18] is B16. The experiment in a line: Induction of apoptosis in mouse B16 cells assessed as increase in caspase-3 cleavage after 48 hrs by Western blot relative to control. It counts as functional, cell-based.
In experiment [19] the test system is B16. The experiment in a line: Induction of apoptosis in mouse B16 cells assessed as increase in Bax level after 48 hrs by Western blot relative to control. It counts as functional, cell-based.
Experiment [20] relates to B16. The experiment in a line: Induction of apoptosis in mouse B16 cells assessed as reduction in Bcl2 level after 48 hrs by Western blot relative to control. It counts as functional, cell-based.
For experiment [21], the system named is B16. Kind of experiment: Induction of apoptosis in mouse B16 cells assessed as increase in mitochondrial cytochrome-C release after 48 hrs by Western blot relative to control. It counts as functional, cell-based.

Consider `O=C1NC(=O)c2cccc3cccc1c23`, for which the IC50 with K562, with CHO and in the experiment on B16 [1] was above 50 µM each time.
For the compound `NCCCCNCCCCNCc1c2ccccc2cc2ccccc12`, the IC50 worked out at 0.95 µM with K562, 1.25 µM with CHO, 1.4 µM in the experiment with B16 [1] and 8.3 µM in [2].
As for `NCCCNCCCCN1C(=O)c2cccc3cccc(c23)C1=O`, the IC50 worked out at 11.4 µM in the experiment with K562, 20.7 µM in the experiment on CHO and 13.9 µM with B16 [1].
`NCCCCNCCCCNCCCN1C(=O)c2cccc3cccc(c23)C1=O`: the figures for the 50% inhibitory concentration (IC50) with K562, in the experiment on CHO and in the experiment on B16 [1] were 9.08 µM, 9.09 µM and 5.36 µM, respectively.
The matching figures for `NCCCNCCCCNCCCCN1C(=O)c2cccc3cccc(c23)C1=O`: 3.84 µM, 3.43 µM and 2.7 µM.
As to `Cl.NCCCCNCCCCNCCCCN1C(=O)c2cccc3cccc(c23)C1=O`, the 50% inhibitory concentration (IC50) is 1.16 µM in the experiment on K562; 2.58 µM with CHO; 0.69 µM with B16 [1]; 3.56 µM in the experiment on Bel-7402; above 50 µM in experiment [3]. Also, the result in the experiment with Calf thymus DNA, with B16 [19], in the experiment on B16 [20] and with B16 [21] was Active. The Activity with B16 [4] came out at 69.78%; in the experiment with B16 [5], 18.52%; in the experiment with B16 [6], 11.7%; in the experiment on B16 [7] it was 65.38%; with B16 [8], 24.91%; in the experiment on B16 [9] it was 9.71%. The Activity with B16 [10] was 58.47%; with B16 [11], 34.19%; in the experiment with B16 [12], 7.34%; with B16 [13] it was 9.68%; in the experiment with B16 [14], 16.84%; in the experiment with B16 [15], 38.63%. In addition, the Activity entry in the experiment on B16 [16], with B16 [17] and with B16 [18] was “Dose-dependent effect” throughout.
Consider `NCCCNCCCCNCCCN1C(=O)c2cccc3cccc(c23)C1=O`, for which the IC50 is 1.64 µM in the experiment with K562; 1.21 µM with CHO; 0.62 µM with B16 [1]; 1.06 µM in the experiment on Bel-7402; above 50 µM in experiment [3].
